In the experiment the target is T1, AQ STING (G230A-R293Q) (Homo sapiens, UniProt Q86WV6, G230A/H232R/R293Q).
T1 construct: truncated human WT STING or AQ STING (amino acid residues 140-343); 8xHis (N, cleaved yes); SUMO (N, cleaved yes); made in house; host or cells: E. coli Rosetta-gami B (DE3)
The experiment is described as follows: Differential scanning fluorimetry (DSF) with AQ STING. It counts as binding. The following applies: thermal shift, truncated human AQ STING 0.1 mg/ml, 150 μM CDN; read-out: DSF ΔTm AQ STING. The source says:
Both WT and AQ human STING (G230A-R^293Q) cDNA were amplified by the use of PCR (Phusion® High-Fidelity DNA Polymerase, cat. # M0530S, NEB, Ipswich, USA) using oligonucleotides hSTING140-BamH-For ([…]) (SEQ ID NO:5) and hSTING379-Not-Rev3 ([…]) (SEQ ID NO:6) from pUNOI-hSTING-WT (cat. # punol-hstingwt, InvivoGen, San Diego, USA) and pUNO1-hSTING-HAQ plasmids (punol-hsting-haq, InvivoGen, San Diego, USA). Purified PCR products were cleaved with restriction enzymes BamHI (cat. # R^0136S, NEB, Ipswich, USA) and NotI (cat. # R^0189S, NEB, Ipswich, USA) and cloned into the pSUMO vector linearized with the identical enzymes. Plasmid pSUMO was created by introducing 8-His-SUMO sequence between NdeI and BamHI sites of pHis-parallel2 plasmid (Clontech, Moutain View, USA). pSUMO-STING WT or pSUMO-STING AQ plasmids thus encoded truncated human WT STING or AQ STING (amino acid residues 140-343) with N-terminal 8×His and SUMO tag.
The recombinant WT STING and AQ STING proteins were overexpressed in Rosetta-gami B (DE3) competent cells (cat. #71136-3, Merck Millipore, Billerica, USA). Bacterial pellets were re-suspended in ice-cold lysis buffer containing 50 mmol·l^−1 TrisCl (cat. # T1503, Sigma Aldrich, Czech Republic) pH 8.0, 300 mmol·l^−1 NaCl, 3 mmol·l^−1 (3-mercaptoethanol (cat. # M6250, Sigma Aldrich, Czech Republic), 10% glycerol (cat. #G5516, Sigma Aldrich, Czech Republic) and 20 mmol·l^−1 imidazole (cat. #15513, Sigma Aldrich, Czech Republic) using Dounce homogenizer. DNase I (cat. # D5025, Sigma Aldrich, Czech Republic) and RNase A (cat. # R^6513, Sigma Aldrich, Czech Republic) were added (final concentration 50 μg/ml) together with MgCl2 (final concentration 5 mmol·l^−1) to the homogenate and bacteria were lysed using French Press G-M™ High-Pressure Cell Press Homogenizer (1500 psi, 3 cycles). Lysate was spun 30,000 g for 20 minutes and supernatant was gently stirred with Ni-NTA resin (cat. #745400.25 Macherey-Nagel, Duren, Germany) for 30 minutes. The resin was poured into a chromatography column, washed with 50 ml buffer A (50 mmol·l^−1 TrisCl (pH 8.0), 800 mmol·l^−1 NaCl, 3 mmol·l^−1β-mercaptoethanol; 10% glycerol; 20 mmol·l^−1 imidazole) and 8-His-SUMO tagged STING proteins were eluted with 15 ml buffer A containing 300 mmol·l^−1 imidazole. The eluted proteins were cleaved with recombinant SUMO protease (80 pig/ml of protein solution, cat. #12588018, ThermoFisher, Waltham, USA). The proteins were further purified by size exclusion chromatography using HiLoad 16/60 Superdex 75 (cat. #28989333, GE Healthcare Bio-Sciences, Pittsburgh, USA) in 50 mmol·l^−1 Tris C1 buffer pH 7.4 containing 150 mmol·l^−1 NaCl, and 10% glycerol. Proteins were concentrated with Amicon® Ultra-15 10 K device (cat. # UFC901008, Merck Millipore, Billerica, USA) and flash frozen in liquid N2.
WT and AQ allelic forms of STING protein were diluted to the final concentration 0.1 mg/ml in 100 mmol·l^−1 TrisCl buffer pH 7.4 containing, 150 mmol·l^−1 NaCl, 1:500 SYPRO Orange (cat. # S6650, ThermoFisher, Waltham, USA) and 150 μM CDN or water. 20 μL solutions of the reaction mixtures were pipetted in triplicates into 96 well optical reaction plates and thermal denaturation of samples were performed on real time PCR cycler (LightCycler® 480 Instrument II—Roche, Basel, Switzerland). The first derivative of the thermal denaturation curves was performed to calculate denaturing temperatures of STING-CDN complexes and STING apoproteins. The thermal shift for each CDN was calculated by subtracting the average denaturing temperature of STING apoprotein from the average denaturing temperature of STING CDN complex.
Background: DSF heats the sample and reads unfolding from a dye or from intrinsic fluorescence.

Each structure is given as a SMILES string.

T1 sequence (Q86WV6 140-343 G230A/H232R/R293Q): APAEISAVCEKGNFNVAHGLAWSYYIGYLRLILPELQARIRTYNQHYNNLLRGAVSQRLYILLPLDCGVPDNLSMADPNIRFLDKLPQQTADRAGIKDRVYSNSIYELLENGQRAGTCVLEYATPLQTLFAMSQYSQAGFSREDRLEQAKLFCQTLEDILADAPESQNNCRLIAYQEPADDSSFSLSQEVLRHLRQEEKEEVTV

In the case of `Nc1nc2c(ncn2[C@@H]2C[C@@H]3COP(=O)(O)OC4C(O)[C@H](n5cnc6c(Cl)ncnc65)O[C@@H]4COP(=O)(O)OC2C3O)c(=O)[nH]1` (stereo partly drawn) [Compound 115, (6R,8R,15R,17R)-17-(2-amino-6-oxo-6,9-dihydro-1H-purin-9-yl)-8-(6-chloro-9H-purin-9-yl)-3,9,12,18-tetrahydroxy-2,4,7,11,13-pentaoxa-3λ^5,12λ^5-diphosphatricyclo[13.2.1.0^6,10]octadecane-3,12-dione], the shift in melting temperature (ΔTm) at 150 µM was found to be 14.2 °C.

In the case of `C#Cc1cn([C@@H]2O[C@@H]3COP(=O)(O)OC4C(O)[C@@H](COP(=O)(O)OC3C2O)C[C@H]4n2cnc3c(=O)[nH]c(N)nc32)c2ncnc(N)c12` (stereo partly drawn) [Compound 114, (6R,8R,15R,17R)-8-{4-amino-5-ethynyl-7H-pyrrolo 2,3-dlpyrimidin-7-yl}-17-(2-amino-6-oxo-6,9-dihydro-1H-purin-9-yl)-3,9,12,18-tetrahydroxy-2,4,7,11,13-pentaoxa-3λ^5,12λ^5-diphosphatricyclo[13.2.1.0^6,10]octadecane-3,12-dione], the ΔTm at 150 µM is 10.3 °C.

On to `Nc1nc2c(ncn2[C@@H]2C[C@@H]3COP(=O)(S)OC4C(O)[C@H](n5cnc6c(N)ncnc65)O[C@@H]4COP(=O)(O)OC2C3O)c(=O)[nH]1` (stereo partly drawn) [Compound 118, (6R,8R,15R,17R)-17-(2-amino-6-oxo-6,9-dihydro-1H-purin-9-yl)-8-(6-amino-9H-purin-9-yl)-3,9,18-trihydroxy-12-sulfanyl-2,4,7,11,13-pentaoxa-3λ^5,12λ^5-diphosphatricyclo[13.2.1.0^6,10]octadecane-3,12-dione], for which the ΔTm at 150 µM stood at 16 °C.

The ΔTm is the shift of the melting midpoint relative to a reference.

Source of the values: patent US20190359645A1, “2'3'-CYCLIC DINUCLEOTIDES COMPRISING CARBOCYCLIC NUCLEOTIDE” (Institute of Organic Chemistry and Biochemistry ASCR, V.V.I., priority 2018, published 2019).
